Patent publication US11326168B2, “Use of potassium channel inhibitor for treating depression” (ZHEJIANG UNIVERSITY, priority 2017, dated 2022)

Target: T1, Kir4.1 (Homo sapiens, UniProt P78508)
T1 sequence (P78508 1-379): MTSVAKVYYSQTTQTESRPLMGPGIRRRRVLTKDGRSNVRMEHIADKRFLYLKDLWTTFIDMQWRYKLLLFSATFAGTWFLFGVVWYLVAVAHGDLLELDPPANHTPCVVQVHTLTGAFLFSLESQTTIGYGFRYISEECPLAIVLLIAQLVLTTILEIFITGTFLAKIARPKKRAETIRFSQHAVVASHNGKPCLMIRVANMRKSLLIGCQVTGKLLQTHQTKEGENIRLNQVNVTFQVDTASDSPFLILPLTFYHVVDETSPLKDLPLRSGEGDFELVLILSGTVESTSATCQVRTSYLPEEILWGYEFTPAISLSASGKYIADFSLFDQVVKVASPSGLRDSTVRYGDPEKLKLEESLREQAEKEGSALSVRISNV
Details: Ohno et al., 2007; Wang et al., 2006; Kharade et al., 2018; cited from earlier work

| SMILES | Kir4.1 inhibition (literature statement) |
| --- | --- |
| COCCCC/C(=N\OCCN)c1ccc(C(F)(F)F)cc1 [fluvoxamine] | inhibit Kir4.1, yet with lower affinity |
| CC(C)c1ccc(OCC(=O)NC2CC(C)(C)NC(C)(C)C2)c(Br)c1 [VU0134992] | highly selective and specific Kir4.1 inhibitor |
| CNCCCN1c2ccccc2CCc2ccccc21 [desipramine] | inhibit Kir4.1, yet with lower affinity |
| CNCCC=C1c2ccccc2CCc2ccccc21 [nortriptyline] | inhibit Kir4.1, yet with lower affinity |
| CN(C)CCCN1c2ccccc2CCc2ccccc21 [imipramine] | inhibit Kir4.1, yet with lower affinity |
| CN[C@H]1CC[C@@H](c2ccc(Cl)c(Cl)c2)c2ccccc21 [sertraline] | inhibit Kir4.1, yet with lower affinity |
| CNCCC(Oc1ccc(C(F)(F)F)cc1)c1ccccc1 (stereo not shown) [fluoxetine] | inhibit Kir4.1, yet with lower affinity |
| CN(C)CCC=C1c2ccccc2CCc2ccccc21 [amitriptyline] | inhibit Kir4.1, yet with lower affinity |

Tested on: LHb neurons
Type: cell-based
Details: not given

| SMILES | firing frequency of bursting neurons |
| --- | --- |
| [Ba+2].[Cl-].[Cl-] [BaCl2] | dramatic increase |

Same assay, conditions: BaCl2 100 μM, about 10 min bath perfusion

| SMILES | RMPs of tonic and burst-firing LHb neurons |
| --- | --- |
| [Ba+2].[Cl-].[Cl-] [BaCl2] | depolarized |
